This is an account of results in patent US10532036B2, “Combination composition” (AFT Pharmaceuticals Ltd, priority 2004, dated 2020).

The subject of assay [1] is pain following wisdom tooth extraction under local anaesthesia. Description: pilot study using a dental pain model, visual analogue scale pain scores. As to conditions: VAS score, calculated from the trial of Example 5, lower = less pain. In kind it is in vivo, patients. On the procedure:
Pain scores at rest and on activity were measured by visual analogue scales which were used to derive an area-under-the curve (AUC) pain score. A lower AUC represents better pain relief.
A lower VAS score is consistent with less pain due to better pain relief. […] Pain scores were calculated as means over the first dose interval rather than AUC values to allow comparison with literature values for paracetamol in the dental pain model.

Assay [2] has as its system postoperative pain after third molar surgery. As to conditions: VAS, paracetamol 1000 mg, RA Seymour et al 2003, cited from earlier work.

Read-outs that look alike come from different tables or passages of the source.

As to `CC(C)Cc1ccc(C(C)C(=O)O)cc1` (stereo not drawn) [Ibuprofen], the “Mean Pain Score at Rest (over first dose interval)” value in assay [1] was 28 mm.
As to `CC(=O)Nc1ccc(O)cc1` [Paracetamol], the entries for the “Mean Pain Score at Rest” value in assay [2] (0-30 minutes) and in assay [2] (over 4 hours) were 46-48 mm and 42 mm, respectively.
